Source: patent publication US7541380B2, “Use of rapamycin and structural analogues thereof” (Universita' Degli Studi do Ferrara, priority 2002, dated 2009)

Tests used:
[1] = system: mRNA for gamma-globin; test: Quantitative RT-PCR of mRNA for gamma-globin in human erythroid precursors isolated from peripheral blood (two-stage culture of Fibach et al.); assay type: cell-based; details: for mRNA for gamma-globin (increase compared with untreated control erythroid precursors): rapamycin 3 μM, hydroxyurea 120 μM, control = 1
Text: In order to check whether rapamycin was capable, in addition to inducing K562 cell differentiation, of stimulating the production of mRNA for gamma-globin in human erythroid precursors isolated from peripheral blood, the technique published by Fibach et al. (19, 20) was used. This technique provides for two stages: in the first stage, the cells isolated from peripheral blood of a subject who is healthy or suffering from a haemopoietic pathology, such as sickle cell anaemia or beta-thalassaemia, are sown in a culture medium to which 10% of conditioned medium derived from the vesicle carcinoma cell line 5637 has been added. The second stage consists in cultivating the isolated cells in a suitable culture medium, supplemented by the erythropoietin hormone, 30% foetal bovine serum, 2-mercaptoethanol, albumin, glutamine and desamethasone in order to permit the proliferation and maturing of stem cells of the erythroid type. In this stage the cells can be treated with potential HbF inducers.

[2] = system: human cell line K562; test: Erythroid differentiation of K562 cells (benzidine-positive cells); details: 20 nM, mean ± SD of 6 experiments, control 4.1%
Method: (§1) The level of differentiation was evaluated by analysing the positive reaction of the cells to benzidine (3). […] The production of haemoglobin was evaluated by electrophoresis on cellulose acetate and by staining the gel with a solution based on benzidine/H2O2 (3). […] The expression of genes coding for gamma-globins was evaluated by quantitative RT-PCR (reverse transcriptase PCR) (3).

[3] = system: human cell line K562; test: Haemoglobin production in K562 cells by electrophoresis on cellulose acetate and benzidine/H2O2 staining; assay type: cell-based; details: K562 cells treated with rapamycin
Method: as §1

[4] = system: human cell cultures; test: Cytotoxic effect in human cell cultures; assay type: cell-based; details: compared with hydroxyurea
Method: The activity of rapamycin as an inducer of erythroid cell differentiation and the production of mRNA for gamma-globin was evaluated in human cell cultures. The results of this study are illustrated in the Tables given in the section relating to the Examples.

[5] = system: mRNA for gamma-globin; test: Quantitative RT-PCR of mRNA for gamma-globin in K562 cells; assay type: cell-based, human; details: 20 nM, 6 days of induction, control = 1
Method: as §1

NC(=O)NO [Hydroxyurea, hydroxyurea]
mRNA for gamma-globin (increase compared with untreated control erythroid precursors) [1]: 2.25

CO[C@H]1C[C@@H]2CC[C@@H](C)[C@@](O)(O2)C(=O)C(=O)N2CCCC[C@H]2C(=O)O[C@H]([C@H](C)C[C@@H]2CC[C@@H](O)[C@H](OC)C2)CC(=O)[C@H](C)/C=C(\C)[C@@H](O)[C@@H](OC)C(=O)[C@H](C)C[C@H](C)/C=C/C=C/C=C/1C [Rapamycin, rapamycin]
Increase in the production of mRNA for gamma-globin compared with the same untreated cells [1]: 3.75 times
mRNA for gamma-globin (increase compared with untreated control erythroid precursors) [1]: 3.73
Erythroid differentiation = percentage of K562 cells that react positively to benzidine [2]: 45.5 ± 5.8%
Erythroid differentiation = percentage of K562 cells that react positively to benzidine ([2]; listed as rapamycin): 40-45%
Chief haemoglobin produced [3]: Hb Portland (alpha2gamma2)
Cytotoxic effect [4]: much lower than that of hydroxyurea
mRNA for gamma-globin (increase compared with untreated control K562 cells) [5]: 2.4
